From patent publication US8952024B2, “Herbicidal pyrimidone derivatives” (E I du Pont de Nemours and Company, priority 2009, dated 2015)

Tests used:
Test in all cases: Test B pre-/postemergence plant response
Format in all cases: in vivo
[1] = test system: Surinam grass (Brachiaria decumbens)
How it was run: (§1)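 Test compounds, formulated in a non-phytotoxic solvent mixture with surfactant, are applied to the soil surface (loam and sand blend) right after seeding, or sprayed over plants at the 1- to 4-leaf stage grown in peat moss/vermiculite medium. After 13 to 15 days under glasshouse conditions, each species is scored visually from 0 (no effect) to 100 (complete control) against controls.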

[2] = test system: yellow nutsedge (Cyperus esculentus)
How it was run: as §1

[3] = test system: Italian ryegrass (Lolium multiflorum)
How it was run: as §1

[4] = test system: velvetleaf (Abutilon theophrasti)
How it was run: as §1

[5] = test system: corn (Zea mays)
How it was run: as §1

[6] = test system: kochia (Kochia scoparia)
How it was run: as §1

[7] = test system: bermudagrass (Cynodon dactylon)
How it was run: as §1

[8] = test system: large crabgrass (Digitaria sanguinalis)
How it was run: as §1

[9] = test system: green foxtail (Setaria viridis)
How it was run: as §1

[10] = test system: cocklebur (Xanthium strumarium)
How it was run: as §1

[11] = test system: soybean (Glycine max)
How it was run: as §1

[12] = test system: blackgrass (Alopecurus myosuroides)
How it was run: as §1

[13] = test system: wild oat (Avena fatua)
How it was run: as §1

[14] = test system: downy bromegrass (Bromus tectorum)
How it was run: as §1

[15] = test system: lambsquarters (Chenopodium album)
How it was run: as §1

[16] = test system: ragweed (common ragweed, Ambrosia elatior)
How it was run: as §1

[17] = test system: pigweed (Amaranthus retroflexus)
How it was run: as §1

[18] = 31 g ai/ha, postemergence, scale 0 to 100, 0 is no effect, 100 is complete control
[19] = 62 g ai/ha, postemergence, 0 is no effect, 100 is complete control, 13 to 15 days
[20] = Postemergence, 250 g ai/ha, scale 0 to 100 (0 no effect, 100 complete control)
[21] = Postemergence, 125 g ai/ha, visual rating after 13 to 15 days, scale 0 (no effect) to 100 (complete control)

O=C1CCCC(O)=C1C(=O)c1cnc(C2CC2)n(-c2ccccc2)c1=O [Compound 87]
Plant response rating, Surinam Grass [1, 18]: 75
Surinam Grass plant response rating (0 to 100 scale) [1, 19]: 75
Plant response rating, Surinam Grass [1, 20]: 85
Plant response rating, Nutsedge, Yellow [2, 18]: 10
Nutsedge, Yellow plant response rating (0 to 100 scale) [2, 19]: 60
Plant response rating, Nutsedge, Yellow [2, 20]: 75
Plant response rating, Ryegrass, Italian [3, 18]: 5
Ryegrass, Italian plant response rating (0 to 100 scale) [3, 19]: 10
Plant response rating, Ryegrass, Italian [3, 20]: 60
Plant response rating, Velvetleaf [4, 18]: 100
Velvetleaf plant response rating (0 to 100 scale) [4, 19]: 100
Plant response rating, Velvetleaf [4, 20]: 100
Plant response rating, Corn [5, 18]: 20
Corn plant response rating (0 to 100 scale) [5, 19]: 55
Plant response rating, Corn [5, 21]: 75
Plant response rating, Corn [5, 20]: 75
Plant response rating, Kochia [6, 18]: 100
Kochia plant response rating (0 to 100 scale) [6, 19]: 100
Plant response rating, Kochia [6, 20]: 100
Plant response rating, Bermudagrass [7, 18]: 90
Bermudagrass plant response rating (0 to 100 scale) [7, 19]: 90
Plant response rating, Bermudagrass [7, 21]: 98
Plant response rating, Bermudagrass [7, 20]: 100
Plant response rating, Crabgrass, Large [8, 18]: 85
Crabgrass, Large plant response rating (0 to 100 scale) [8, 19]: 85
Plant response rating, Crabgrass, Large [8, 21]: 95
Plant response rating, Crabgrass, Large [8, 20]: 98
Plant response rating, Foxtail, Green [9, 18]: 75
Foxtail, Green plant response rating (0 to 100 scale) [9, 19]: 80
Plant response rating, Foxtail, Green [9, 20]: 95
Plant response rating, Cocklebur [10, 18]: 98
Cocklebur plant response rating (0 to 100 scale) [10, 19]: 100
Plant response rating, Cocklebur [10, 21]: 100
Plant response rating, Cocklebur [10, 20]: 100
Plant response rating, Soybean [11, 18]: 98
Soybean plant response rating (0 to 100 scale) [11, 19]: 98
Plant response rating, Soybean [11, 20]: 100
Plant response rating, Blackgrass [12, 18]: 5
Blackgrass plant response rating (0 to 100 scale) [12, 19]: 5
Plant response rating, Blackgrass [12, 21]: 20
Plant response rating, Blackgrass [12, 20]: 40
Plant response rating, Oat, Wild [13, 18]: 50
Oat, Wild plant response rating (0 to 100 scale) [13, 19]: 60
Plant response rating, Oat, Wild [13, 20]: 90
Plant response rating, Bromegrass, Downy [14, 18]: 20
Bromegrass, Downy plant response rating (0 to 100 scale) [14, 19]: 50
Plant response rating, Bromegrass, Downy [14, 21]: 60
Plant response rating, Bromegrass, Downy [14, 20]: 80
Plant response rating, Lambsquarters [15, 18]: 98
Lambsquarters plant response rating (0 to 100 scale) [15, 19]: 98
Plant response rating, Lambsquarters [15, 20]: 100
Plant response rating, Ragweed [16, 18]: 85
Ragweed plant response rating (0 to 100 scale) [16, 19]: 95
Plant response rating, Ragweed [16, 20]: 98
Plant response rating, Pigweed [17, 18]: 98
Pigweed plant response rating (0 to 100 scale) [17, 19]: 98
Plant response rating, Pigweed [17, 20]: 100
